The source of these data is patent US20250368647A1, “NITROGEN CONTAINING CONDENSED 2,3-DIHYDROQUINAZOLINONE COMPOUNDS AS NAV1.8 INHIBITORS” (GLAXOSMITHKLINE INTELLECTUAL PROPERTY DEVELOPMENT LIMITED, priority 2022, published 2025).

The target in one data set is human Nav1.8 (Homo sapiens (Human), UniProt Q9Y5Y9). The experiment in a line: QPatch 48 HTX voltage-clamp electrophysiology, half inactivation state (V1/2) protocol, HEK293-Nav1.8 cells. The class given is cell-based. The settings on record: HEK293 cells expressing human Nav1.8, human Navβ1 and human TREK1, P2 current. In outline:
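HEK293 cells co-expressing Navβ1 and TREK1 were voltage-clamped from −100 mV: a 20 ms step to 0 mV, 8 s inactivation at −46 mV, 20 ms at −100 mV, then a 20 ms P2 test step to 0 mV, repeated every 15 s. P2 current was normalized to vehicle and full block, corrected for run-down, and Hill-fitted (4–6 concentrations) for IC50.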

Like-named read-outs stand apart in the source and are kept apart here.

Sequence of human Nav1.8 (Q9Y5Y9 whole entry): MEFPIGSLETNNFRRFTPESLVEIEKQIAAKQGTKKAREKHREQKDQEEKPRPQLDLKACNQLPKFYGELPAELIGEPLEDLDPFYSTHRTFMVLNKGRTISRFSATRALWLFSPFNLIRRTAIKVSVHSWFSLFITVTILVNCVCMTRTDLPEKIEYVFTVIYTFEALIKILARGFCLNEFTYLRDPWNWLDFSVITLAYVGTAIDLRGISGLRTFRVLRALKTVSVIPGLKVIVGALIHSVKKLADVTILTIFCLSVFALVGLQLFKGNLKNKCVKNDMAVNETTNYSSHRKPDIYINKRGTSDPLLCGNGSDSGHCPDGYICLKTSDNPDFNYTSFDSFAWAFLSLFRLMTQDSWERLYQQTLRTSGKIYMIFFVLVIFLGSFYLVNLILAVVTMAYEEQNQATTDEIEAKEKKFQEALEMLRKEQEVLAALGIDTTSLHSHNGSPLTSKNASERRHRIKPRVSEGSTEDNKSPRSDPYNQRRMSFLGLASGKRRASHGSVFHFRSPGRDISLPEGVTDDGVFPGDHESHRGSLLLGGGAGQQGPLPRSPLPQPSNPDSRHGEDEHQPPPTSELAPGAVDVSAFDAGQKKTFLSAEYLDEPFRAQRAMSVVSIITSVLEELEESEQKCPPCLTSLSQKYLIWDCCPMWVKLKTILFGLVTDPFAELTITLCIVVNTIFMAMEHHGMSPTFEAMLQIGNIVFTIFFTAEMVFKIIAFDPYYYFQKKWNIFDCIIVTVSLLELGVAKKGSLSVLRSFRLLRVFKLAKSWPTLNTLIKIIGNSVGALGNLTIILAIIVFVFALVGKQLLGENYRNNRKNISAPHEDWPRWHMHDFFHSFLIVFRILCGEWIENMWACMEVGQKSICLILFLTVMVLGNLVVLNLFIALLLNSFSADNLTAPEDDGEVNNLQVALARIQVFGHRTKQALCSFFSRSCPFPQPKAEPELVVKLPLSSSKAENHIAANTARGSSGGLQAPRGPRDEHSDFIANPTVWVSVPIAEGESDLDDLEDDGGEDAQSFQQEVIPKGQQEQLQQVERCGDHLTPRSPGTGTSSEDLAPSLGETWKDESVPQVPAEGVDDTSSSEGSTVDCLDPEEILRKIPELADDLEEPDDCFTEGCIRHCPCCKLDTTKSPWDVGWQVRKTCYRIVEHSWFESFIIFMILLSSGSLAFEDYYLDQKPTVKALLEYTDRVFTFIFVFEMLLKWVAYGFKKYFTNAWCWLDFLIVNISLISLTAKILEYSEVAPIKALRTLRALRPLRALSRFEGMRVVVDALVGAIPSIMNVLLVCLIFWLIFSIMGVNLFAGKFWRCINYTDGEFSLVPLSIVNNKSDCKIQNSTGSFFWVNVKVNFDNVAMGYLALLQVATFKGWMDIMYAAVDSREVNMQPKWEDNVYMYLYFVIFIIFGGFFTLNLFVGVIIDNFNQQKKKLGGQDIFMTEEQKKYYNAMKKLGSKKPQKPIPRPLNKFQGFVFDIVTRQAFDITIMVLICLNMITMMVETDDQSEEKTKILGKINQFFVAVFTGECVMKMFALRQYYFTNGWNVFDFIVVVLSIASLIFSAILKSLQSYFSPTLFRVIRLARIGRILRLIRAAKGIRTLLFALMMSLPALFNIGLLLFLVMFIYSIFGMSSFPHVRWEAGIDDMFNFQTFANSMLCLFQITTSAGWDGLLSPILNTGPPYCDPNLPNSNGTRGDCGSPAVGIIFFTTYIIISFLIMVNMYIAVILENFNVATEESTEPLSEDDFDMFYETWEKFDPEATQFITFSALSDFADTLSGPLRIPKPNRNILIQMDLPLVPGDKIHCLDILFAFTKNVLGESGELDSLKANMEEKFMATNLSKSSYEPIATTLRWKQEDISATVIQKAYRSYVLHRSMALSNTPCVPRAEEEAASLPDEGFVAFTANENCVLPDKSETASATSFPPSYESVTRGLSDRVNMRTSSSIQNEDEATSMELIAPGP
Sequence of human Nav1.8 (Q07699 19-218 partner): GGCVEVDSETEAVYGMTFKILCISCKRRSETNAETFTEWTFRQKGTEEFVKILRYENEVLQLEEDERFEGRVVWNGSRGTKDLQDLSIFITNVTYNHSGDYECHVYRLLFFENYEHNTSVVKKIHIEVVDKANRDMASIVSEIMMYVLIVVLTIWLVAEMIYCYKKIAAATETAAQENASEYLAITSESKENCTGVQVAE

Take `COc1ccc2c(n1)N(C(=O)OC(C)(C)C)CCCc1c(ccc(F)c1F)Nc1cc(C(F)(F)F)c(F)cc1C(=O)N2`: the ring closure, isolated yield (from COc1ccc(N)c(N(CCCc2c(Nc3cc(C(F)(F)F)c(F)cc3C(=O)O)ccc(F)c2F)C(=O)OC(C)(C)C)n1, amide bond, 13-membered ring, PyOxim/DIEA, DMF, 129.0 mM, 24.0 h) came to 72%.

`COc1ccc2c(n1)C=CCCc1cc(F)ccc1N1CN2C(=O)c2cc(C(F)(F)F)ncc21` showed a ring closure, isolated yield (from C=CCCc1cc(F)ccc1N1CN(c2ccc(OC)nc2/C=C\C)C(=O)c2cc(C(F)(F)F)ncc21, rcm bond, 11-membered ring, Hoveyda-Grubbs II, DCE, 80.0 °C, 18.5 h) of 3%.

The compound `COc1ccc2c(n1)NCCOCc1cc(F)ccc1N1CN2C(=O)c2cc(F)c(C(F)(F)F)cc21` came in with a ring closure, isolated yield (from COc1ccc(N2CN(c3ccc(F)cc3COCCN)c3cc(C(F)(F)F)c(F)cc3C2=O)c(Br)n1, cn_pd bond, 12-membered ring, Pd2(dba)3/BINAP/NaOtBu, toluene, 46.4 mM, 100.0 °C, 4.0 h) of 37%.

As to `COc1ccc2c(n1)NCCCCc1cc(F)ccc1N1CN2C(=O)c2cc(C(F)(F)F)ccc21`, the ring closure, isolated yield (from COc1ccc(N2CN(c3ccc(F)cc3CCCCN)c3ccc(C(F)(F)F)cc3C2=O)c(Br)n1, cn_pd bond, 12-membered ring, Pd2(dba)3/BINAP/NaOtBu, toluene, 71.0 mM, 90.0 °C, 3.0 h) turned out to be 40%.

Compound `COc1ccc2c(n1)C(C)(C)CN(C(=O)OC(C)(C)C)Cc1cc(F)ccc1Nc1cc(C(F)(F)F)c(F)cc1C(=O)N2` yielded a ring closure, isolated yield (from COC(=O)c1cc(F)c(C(F)(F)F)cc1Nc1ccc(F)cc1CN(CC(C)(C)c1nc(OC)ccc1N)C(=O)OC(C)(C)C, amide bond, 13-membered ring, LiHMDS, THF, 104.0 mM, 16.0 h) of 46%.

Compound `COc1ccc2c(n1)C=CCc1cc(F)ccc1N1CN2C(=O)c2cc(C(F)(F)F)ccc21` showed a ring closure, isolated yield (from C=CCc1cc(F)ccc1N1CN(c2ccc(OC)nc2C=C)C(=O)c2cc(C(F)(F)F)ccc21, rcm bond, 10-membered ring, Hoveyda-Grubbs II (20 mol%), DCE, 1.38 mM, 80.0 °C, 4.0 h) of 72%.

`COc1ccc2c(n1)CCC=CCc1cc(F)ccc1N1CN2C(=O)c2cc(Cl)cnc21` showed a ring closure, isolated yield (from C=CCCc1nc(OC)ccc1N1CN(c2ccc(F)cc2CC=C)c2ncc(Cl)cc2C1=O, rcm bond, 12-membered ring, Hoveyda-Grubbs II, DCE, 80.0 °C, 1.0 h) of 51%.

Under “from C=CCc1cc(F)ccc1N1CN(c2ccc(OC)nc2CC=C)C(=O)c2cc(C(F)(F)F)ccc21, rcm bond, 11-membered ring, Hoveyda-Grubbs II (20 mol%), DCE, 8.6 mM, 80.0 °C, 16.0 h”, `COc1ccc2c(n1)CC=CCc1cc(F)ccc1N1CN2C(=O)c2cc(C(F)(F)F)ccc21` showed a ring closure, isolated yield of 68%.

Turning to `COc1ccc2c(n1)CC=CCCc1cc(F)ccc1N1CN2C(=O)c2cc(C(F)(F)F)ccc21`, the ring closure, isolated yield (from C=CCCc1cc(F)ccc1N1CN(c2ccc(OC)nc2CC=C)C(=O)c2cc(C(F)(F)F)ccc21, rcm bond, 12-membered ring, Hoveyda-Grubbs II (20 mol%), DCE, 50.3 mM, 80.0 °C, 18.0 h) came out at 67%.

Under “rcm bond, 12-membered ring, Hoveyda-Grubbs M722 (Grubbs C711), 80.0 °C”, “3^4-fluoro-1^6-methoxy-2^7-(trifluoromethyl)-2^1,2^2,2^3,2^4-tetrahydro-4-oxa-2(3,1)-quinazolina-1(3,2)-pyridina-3(1,2)-benzenacyclo octaphane-6-en-2^4-one” registered a ring closure, isolated yield of 7%.

As to `O=C1c2cc(C(F)(F)F)ccc2N2CN1c1ccncc1CC=CCCc1cc(F)ccc12`, where the note is “from C=CCCc1cc(F)ccc1N1CN(c2ccncc2CC=C)C(=O)c2cc(C(F)(F)F)ccc21, rcm bond, 12-membered ring, Greencat-iPr, DCE, 80.0 °C, 4.0 h”, the ring closure, isolated yield came out at 40%.

Turning to `COc1ccc2c(n1)CC=CCc1cc(F)ccc1N1CN2C(=O)c2ccc(C(F)(F)F)cc21`, under “from C=CCc1cc(F)ccc1N1CN(c2ccc(OC)nc2CC=C)C(=O)c2ccc(C(F)(F)F)cc21, rcm bond, 11-membered ring, Hoveyda-Grubbs II (20 mol%), DCE, 8.6 mM, 80.0 °C, 16.0 h”, the ring closure, isolated yield amounted to 52%.

With `COc1ccc(NC(=O)c2cc(Cl)c(F)cc2Br)c(N(CCCc2cc(F)ccc2N)C(=O)OC(C)(C)C)n1`, the ring closure, isolated yield (the molecule shown is the open-chain precursor, other bond, 13-membered ring, CuI/DIEA, DMF, 21.9 mM, 95.0 °C) was 29%.

Where the note is “from COc1ccc(N)c(N(CCCc2cc(F)ccc2Nc2ccc(C(F)(F)F)cc2C(=O)O)C(=O)OC(C)(C)C)n1, amide bond, 13-membered ring, PyOxim/DIEA, DMF, 95.4 mM, 2.0 h”, `COc1ccc2c(n1)N(C(=O)OC(C)(C)C)CCCc1cc(F)ccc1Nc1ccc(C(F)(F)F)cc1C(=O)N2` yielded a ring closure, isolated yield of 80%.

`C[C@H]1NCCCc2[nH]c(=O)ccc2N2CN(c3cc(C(F)(F)F)c(F)cc3C2=O)c2ccc(F)cc21` [Example 136, (4R)-2^6,3^4-Difluoro-4-methyl-2^7-(trifluoromethyl)-1^1,1^2,2^1,2^2,2^3,2^4-hexahydro-5-aza-2(3,1)-quinazolina-1(5,6)-pyridina-3(1,2)-benzenacyclooctaphane-1^2,2^4-dione]: the “Nav1.8, pIC50” value at human Nav1.8 is 6.9.

Consider `O=C1c2cc(C(F)(F)F)ncc2N2CN1c1ccc(=O)[nH]c1NCCCc1c2ccc(F)c1F` [Example 38, 8,9-Diluoro-2-(trifluoromethyl)-10,11,12,13-tetrahydro-19H-5,18-methanodibenzo[i]dipyrido[2,3,-b:4′,3′-f][1,4,8]triazacyclotridecine-15,19(14H)-dione], for which the “Nav1.8, pIC50” value at human Nav1.8 is reported as 6.8.

Take `O=C1c2cc(C(F)(F)F)ccc2N2CN1c1ccc(=O)[nH]c1NCCOc1cc(F)ccc12` [Example 15, 8-Fluoro-2-(trifluoromethyl)-12,13-dihydro-11H,19H-5,18-methanodibenzo[i,j]pyrido[2,3-e][1]oxa[4,7,11]triazacyclotridecine-15,19(14H)-dione]: the “Nav1.8, pIC50” value on human Nav1.8 was 5.7.

For `N#Cc1cc2c(cc1F)C(=O)N1CN2c2ccc(F)cc2CCCNc2[nH]c(=O)ccc21` [Example 95, 2,8-Difluoro-15,19-dioxo-10,11,12,13,14,15-hexahydro-19H-5,18-methanodibenzo[f,i]pyrido-[2,3-b][1,4,8]triazacyclotridecine-3-carbonitrile], on human Nav1.8, the “Nav1.8, pIC50” value worked out at 7.5.

Consider `O=C1c2cc(C(F)(F)F)ccc2N2CN1c1ccc(=O)[nH]c1CCCCNc1cc(F)ccc12` [Example 25, 3^4-Fluoro-2^6-(trifluoromethyl)-1^1,1^2,2^1,2^2,2^3,2^4-hexahydro-4-aza-2(3,1)-quinazolina-1(5,6)-pyridina-3(1,2)-benzenacyclooctaphan-1^2,2^4-dione], for which, on human Nav1.8, the “Nav1.8, pIC50” value was 6.2.

Consider `O=C1c2cc(C(F)(F)F)ccc2N2CN1c1ccc(=O)[nH]c1CCCCCCc1cc(F)ccc12` [Example 10, 3^4-Fluoro-2^6-(trifluoromethyl)-1^1,1^2,2^1,2^2,2^3,2^4-hexahydro-2(3,1)-quinazolina-1(5,6)-pyridina-3(1,2)-benzenacyclononaphane-1^2,2^4-dione], for which the “Nav1.8, pIC50” value on human Nav1.8 is on record as 6.5.

As for `Cl.N#Cc1c(F)ccc2c1CNCCc1[nH]c(=O)ccc1N1CN2c2cc(C(F)(F)F)c(F)cc2C1=O` [Example 82, 2,8-Difluoro-15,19-dioxo-3-(trifluoromethyl)-10,11,12,13,14,15-hexahydro-19H-5,18-methanodibenzo[c,f]pyrido[3,2-j][1,5,9]triazacyclotridecine-9-carbonitrile hydrochloride], the “Nav1.8, pIC50” value at human Nav1.8 worked out at 7.9.

As to `CC1(C)CNCc2cc(F)ccc2N2CN(C(=O)c3cc(F)c(C(F)(F)F)cc32)c2ccc(=O)[nH]c21` [Example 134, 2,8-Difluoro-13,13-dimethyl-3-(trifluoromethyl)-10,11,12,13-tetrahydro-19H-5,18-methanodibenzo[c,f]pyrido[3,2-j][1,5,9]triazacyclotridecine-15,19(14H)-dione], the “Nav1.8, pIC50” value on human Nav1.8 stood at 7.3.

Regarding `CC1Cc2[nH]c(=O)ccc2N2CN(c3ccc(F)cc3CN1)c1cc(C(F)(F)F)c(F)cc1C2=O` (single isomer, unassigned; isomer 2) [Example 125, 2,8-difluoro-12-methyl-3-(trifluoromethyl)-10,11,12,13-tetrahydro-19H-5,18-methanodibenzo[c,f]pyrido[3,2-j][1,5,9]triazacyclotridecine-15,19(14H)-dione, Isomer 2], at human Nav1.8 (read-out: Nav1.8, pIC50 (converted)), the IC50 is 631 nM.
